In brackets after ≈: the same amount, converted by molar mass. Read-outs that look alike come from different tables or passages of the source.
How the values were obtained:
[1] = tested on: Klebsiella pneumoniae ATCC BAA-2344 (KPC-2); test: MIC, broth microdilution; format: cell-based; settings: K. pneumoniae ATCC BAA-2344, agent alone
[2] = tested on: E. coli ATCC BAA-2469 (NDM-1); test: Lethal mouse model of systemic infection; settings: Escherichia coli, ATCCBAA2469, in Mus musculus, sc
[3] = tested on: P. aeruginosa CDC-90 (KPC-5); test: MIC, broth microdilution; format: cell-based; settings: Pseudomonas aeruginosa, agent alone
[4] = tested on: Klebsiella pneumoniae ATCC BAA-2344 (KPC-2); test: Lethal mouse model of systemic infection; settings: ATCCBAA2344, in Mus musculus
[5] = tested on: A. baumannii CDC-303 (OXA-23, 66); test: Lethal mouse model of systemic infection; settings: Acinetobacter baumannii, in Mus musculus, sc, read-out: ED50 of MEM, extrapolated from the probit analysis
[6] = tested on: P. aeruginosa CDC-90 (KPC-5); test: Lethal mouse model of systemic infection; settings: Pseudomonas aeruginosa, in Mus musculus, sc, read-out: ED50 of MEM (95% confidence intervals)
[7] = tested on: isolates of E. coli with NDM and PBP3 mutations; test: MIC, broth microdilution; format: cell-based; settings: Escherichia coli, read-out: median MICs
[8] = tested on: Clostridium perfringens ATCC 13124; test: microbe, parasite or virus in culture; format: cell-based; settings: ATCC13124
[9] = molecular target: VIM-1 (Pseudomonas aeruginosa, UniProt A0A0F7KYQ8); test: Ki app determination (Waley's method)
[10] = tested on: Clostridioides difficile ATCC 700057; test: MIC, agar dilution, reference strains of anaerobic bacteria; format: cell-based; settings: ATCC700057
[11] = molecular target: VIM-2 (Escherichia coli, UniProt Q5U7L7); test: Ki app determination (Waley's method)
[12] = tested on: Bacteroides thetaiotaomicron KUB2984; test: MIC, agar dilution, reference strains of anaerobic bacteria; format: cell-based
[13] = molecular target: NDM-1 (Klebsiella pneumoniae, UniProt C7C422); test: Ki app determination (Waley's method)
Chain of NDM-1 (C7C422 29-270, looked up, species assumed): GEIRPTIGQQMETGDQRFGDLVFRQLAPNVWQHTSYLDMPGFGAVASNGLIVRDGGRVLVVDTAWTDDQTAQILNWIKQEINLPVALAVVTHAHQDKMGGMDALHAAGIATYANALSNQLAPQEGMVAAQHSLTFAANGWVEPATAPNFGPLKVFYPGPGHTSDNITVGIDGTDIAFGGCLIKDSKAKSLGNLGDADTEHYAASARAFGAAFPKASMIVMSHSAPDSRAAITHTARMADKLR

[14] = molecular target: KPC-38 (Klebsiella pneumoniae, UniProt Q9F663); test: Ki app determination (Waley's method); settings: read-out: Ki app, means from three independent studies
Chain of KPC-38 (Q9F663 25-293 limits assumed): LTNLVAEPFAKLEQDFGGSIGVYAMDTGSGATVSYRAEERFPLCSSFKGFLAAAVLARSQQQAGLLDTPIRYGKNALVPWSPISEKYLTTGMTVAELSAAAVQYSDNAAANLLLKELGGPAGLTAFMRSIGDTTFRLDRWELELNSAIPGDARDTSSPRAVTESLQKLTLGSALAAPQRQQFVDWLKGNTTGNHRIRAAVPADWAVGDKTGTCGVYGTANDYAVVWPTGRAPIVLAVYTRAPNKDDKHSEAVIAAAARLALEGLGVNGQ

[15] = molecular target: KPC-2 (Klebsiella pneumoniae, UniProt Q9F663); test: Ki app determination (Waley's method)
Chain of KPC-2 (Q9F663 25-293, looked up, species assumed): as the sequence (Q9F663 25-293 limits assumed) above

[16] = tested on: Fusobacterium varium ATCC 27725; test: MIC, agar dilution, reference strains of anaerobic bacteria; format: cell-based; settings: ATCC27725
[17] = molecular target: NDM-7 (Klebsiella pneumoniae, UniProt C7C422, D130N/M154L); test: Ki app determination (Waley's method)
Chain of NDM-7 (C7C422 29-270 D130N/M154L): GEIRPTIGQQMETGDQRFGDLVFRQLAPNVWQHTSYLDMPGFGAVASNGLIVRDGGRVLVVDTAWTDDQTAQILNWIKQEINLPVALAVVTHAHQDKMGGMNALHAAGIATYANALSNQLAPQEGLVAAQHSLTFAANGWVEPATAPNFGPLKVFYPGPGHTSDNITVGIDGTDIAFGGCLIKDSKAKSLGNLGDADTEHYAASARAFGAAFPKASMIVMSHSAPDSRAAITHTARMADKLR

[18] = Intrinsic antibacterial activity, MIC; format: cell-based
[19] = Free concentration of KSP-1007 at the dose effective in the infection models; format: in vivo, mouse; settings: 30 mg/kg of KSP-1007; data not shown
[20] = molecular target: SHV-2 (Klebsiella pneumoniae, UniProt P0A9Z8); test: Ki app determination (Waley's method)
Chain of SHV-2 (P0A9Z8 22-286): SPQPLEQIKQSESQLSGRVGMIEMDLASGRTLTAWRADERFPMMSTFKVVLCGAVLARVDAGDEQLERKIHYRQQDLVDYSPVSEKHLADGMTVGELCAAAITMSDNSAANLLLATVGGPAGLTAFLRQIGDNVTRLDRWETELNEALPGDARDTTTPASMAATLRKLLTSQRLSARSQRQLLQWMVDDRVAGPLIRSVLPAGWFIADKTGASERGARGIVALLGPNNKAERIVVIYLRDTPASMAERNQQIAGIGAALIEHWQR

[21] = molecular target: OXA-65 (Acinetobacter baumannii, UniProt Q58XD3); test: Ki app determination (Waley's method)
Chain of OXA-65 (Q58XD3 entry or part of it): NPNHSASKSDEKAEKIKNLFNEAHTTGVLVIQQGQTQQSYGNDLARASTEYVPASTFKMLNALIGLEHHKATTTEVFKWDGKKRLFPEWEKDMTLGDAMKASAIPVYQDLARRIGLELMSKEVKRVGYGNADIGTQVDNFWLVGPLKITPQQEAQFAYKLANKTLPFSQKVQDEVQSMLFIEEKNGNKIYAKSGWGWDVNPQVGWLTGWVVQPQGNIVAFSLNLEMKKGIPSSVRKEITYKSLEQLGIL

[22] = molecular target: class D carbapenemases, OXAs from Acinetobacter spp., and OXA-48; test: Ki app determination, range over enzymes; settings: read-out: Ki app, range; range over OXAs from Acinetobacter spp. and OXA-48
[23] = tested on: Finegoldia magna ATCC 29328; test: MIC, agar dilution, reference strains of anaerobic bacteria; format: cell-based; settings: ATCC29328
[24] = molecular target: OXA-24 (Acinetobacter baumannii, UniProt Q8RLA6); test: Ki app determination (Waley's method)
Chain of OXA-24 (Q8RLA6 20-275 limits assumed): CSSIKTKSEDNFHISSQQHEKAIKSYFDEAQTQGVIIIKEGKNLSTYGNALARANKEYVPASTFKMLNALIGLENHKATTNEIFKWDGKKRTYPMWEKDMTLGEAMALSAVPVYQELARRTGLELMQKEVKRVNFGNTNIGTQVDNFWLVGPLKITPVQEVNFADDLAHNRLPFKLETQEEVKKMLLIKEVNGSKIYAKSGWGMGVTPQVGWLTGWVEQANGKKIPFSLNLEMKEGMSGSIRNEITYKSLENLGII

[25] = tested on: Clostridioides difficile ATCC BAA-1870; test: MIC, agar dilution, reference strains of anaerobic bacteria; format: cell-based; settings: ATCCBAA1870
[26] = molecular target: NDM-5 (Klebsiella pneumoniae, UniProt C7C422, M154L/V88L); test: Ki app determination (Waley's method)
Chain of NDM-5 (C7C422 29-270 V88L/M154L): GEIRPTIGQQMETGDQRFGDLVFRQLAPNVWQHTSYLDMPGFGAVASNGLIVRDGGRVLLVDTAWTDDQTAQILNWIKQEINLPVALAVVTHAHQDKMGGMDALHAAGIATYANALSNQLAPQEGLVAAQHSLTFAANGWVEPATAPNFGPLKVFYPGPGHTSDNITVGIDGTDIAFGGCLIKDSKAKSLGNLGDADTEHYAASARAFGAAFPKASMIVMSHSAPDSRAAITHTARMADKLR

[27] = tested on: 12 Gram-positive strains (including methicillin-sensitive staphylococci and streptococci); test: Intrinsic antibacterial activity, MIC; format: cell-based; settings: KSP-1007 alone
[28] = tested on: Bulleidia extructa KUB3013; test: MIC, agar dilution, reference strains of anaerobic bacteria; format: cell-based
[29] = tested on: Propionibacterium acnes ATCC 11827; test: as above; format: cell-based; settings: Cutibacterium acnes, ATCC11827
[30] = molecular target: KPC-3 (Klebsiella pneumoniae, UniProt Q9F663, H272Y); test: Ki app determination (Waley's method)
Chain of KPC-3 (Q9F663 25-293 H272Y): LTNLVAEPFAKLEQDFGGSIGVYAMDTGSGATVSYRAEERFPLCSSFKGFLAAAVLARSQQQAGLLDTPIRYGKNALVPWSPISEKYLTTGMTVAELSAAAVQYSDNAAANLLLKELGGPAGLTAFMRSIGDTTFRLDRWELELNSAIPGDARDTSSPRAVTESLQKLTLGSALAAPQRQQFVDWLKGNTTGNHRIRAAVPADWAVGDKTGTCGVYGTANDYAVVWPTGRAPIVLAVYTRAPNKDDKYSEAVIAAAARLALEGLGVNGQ

[31] = molecular target: IMP-6 (Serratia marcescens, UniProt P52699, S214G); test: Ki app determination (Waley's method)
Chain of IMP-6 (P52699 19-246 S214G): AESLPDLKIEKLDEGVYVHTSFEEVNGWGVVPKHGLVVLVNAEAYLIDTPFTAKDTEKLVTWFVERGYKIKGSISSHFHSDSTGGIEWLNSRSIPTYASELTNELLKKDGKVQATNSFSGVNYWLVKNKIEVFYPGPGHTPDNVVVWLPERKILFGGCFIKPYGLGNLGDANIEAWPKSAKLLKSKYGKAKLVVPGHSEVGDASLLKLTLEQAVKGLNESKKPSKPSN

[32] = tested on: Clostridioides difficile ATCC BAA-1803; test: MIC, agar dilution, reference strains of anaerobic bacteria; format: cell-based; settings: ATCCBAA1803
[33] = tested on: Actinomyces odontolyticus ATCC 17929; test: as above; format: cell-based; settings: Schaalia odontolytica, ATCC17929
[34] = tested on: Prevotella intermedia KUB2991; test: as above; format: cell-based

In the case of `C[C@@H](O)[C@H]1C(=O)N2C(C(=O)O)=C(S[C@@H]3CN[C@H](C(=O)N(C)C)C3)[C@H](C)[C@H]12` [MEM, meropenem], the MIC ([1]; Experiment 1) is reported as 16 to 32 µg/mL, the MIC ([1]; Klebsiella pneumoniae, ATCCBAA2344, Experiment 2, read-out: MIC) is reported as 16 to 32 µg/mL (≈ 41.7 to 83.4 µM) and the ED50 ([2]; read-out: ED50 of MEM (95% confidence intervals), E. coli ATCC BAA-2469, Experiment 1, single sc dose, survival day 7, dose ratio in label) is reported as 103 mg/kg. The ED50 ([2]; read-out: ED50 of MEM (95% confidence intervals), E. coli ATCC BAA-2469, Experiment 2, single sc dose, survival day 7, dose ratio in label) was 118 mg/kg, the MIC [3] was 32 µg/mL (≈ 83.4 µM) and the ED50 ([4]; read-out: ED50 of MEM (95% confidence intervals), K. pneumoniae ATCC BAA-2344, Experiment 1, single sc dose 2 h after ip inoculation, survival day 7, dose ratio in label) was 205 mg/kg. The ED50 ([4]; read-out: ED50 of MEM (95% confidence intervals), K. pneumoniae ATCC BAA-2344, Experiment 2, single sc dose 2 h after ip inoculation, survival day 7, dose ratio in label) was 54.8 mg/kg, the ED50 [5] was 6550 mg/kg and the ED50 [6] was 54.8 mg/kg.

In the case of `CC(C)(O/N=C(\C(=O)N[C@@H]1C(=O)N2C(C(=O)[O-])=C(C[N+]3(CCNC(=O)c4ccc(O)c(O)c4Cl)CCCC3)CS[C@H]12)c1csc(N)n1)C(=O)O` [FDC, cefiderocol], the MIC [7] is reported as 4 µg/mL (≈ 5.32 µM).

`N[C@@H](C(=O)N1CC(Oc2ccc3c(c2C(=O)O)OB(O)CC3)C1)c1c[nH]cn1` [KSP-1007, 7-({1-[(2R)-2-amino-2-(1H-imidazol-4-yl)acetyl]azetidin-3-yl}oxy)-2-hydroxy-3,4-dihydro-2H-1,2-benzoxaborinine-8-carboxylic acid] gave an MIC [8] of 2 µg/mL (≈ 5.18 µM), a Ki [9] of 350 ± 45.4 nM and an MIC [10] greater than 256 µg/mL. For the same compound, the Ki [11] was 1210 nM, the MIC [12] was 32 µg/mL (≈ 82.9 µM) and the Ki [13] was 126 ± 58.1 nM. For the same compound, the Ki [14] was 0.836 ± 0.414 nM, the Ki [15] was 1.46 ± 0.0574 nM and the MIC [16] was greater than 256 µg/mL. The Ki [17] was 53 ± 30.2 nM, the MIC [18] was no less than 64 µg/mL and the free concentration [19] was “exceeded 8 µg/mL”. For the same compound, the Ki [20] was 361 ± 127 nM, the Ki [21] was 5.44 ± 1.21 nM and the Ki [22] was 0.621 to 5.78 nM. The MIC [23] was 128 µg/mL (≈ 331 µM), the Ki [24] was 1.09 ± 0.387 nM and the MIC [25] was greater than 256 µg/mL. For the same compound, the Ki [26] was 31.6 ± 12.3 nM, the “MICs, range” value [27] was 0.25 to 8 µg/mL and the MIC [28] was 32 µg/mL (≈ 82.9 µM). For the same compound, the MIC [29] was 32 µg/mL (≈ 82.9 µM), the Ki [30] was 2.19 ± 0.687 nM and the Ki [31] was 19900 nM. For the same compound, the MIC [32] was greater than 256 µg/mL, the MIC [33] was 256 µg/mL (≈ 663 µM) and the MIC [34] was 4 µg/mL (≈ 10.4 µM).

— paper PMC11620503 (Antimicrobial Agents and Chemotherapy, 2024)
